Data on 14 compounds can be found in patent US20050245563A1 (Millennium Pharmaceuticals, Inc., priority 2003, published 2005).

A value given as a limit tells only on which side of the number the result lay.

By IC50 is commonly meant the point on the concentration scale where inhibition reaches its midpoint.

In the test the target is T1, human Chk1 (GST-Chk1) (Homo sapiens, UniProt O14757).
T1 construct: made in house; host or cells: insect cells (baculovirus, Bac-to-Bac)
T1 sequence (O14757 1-476): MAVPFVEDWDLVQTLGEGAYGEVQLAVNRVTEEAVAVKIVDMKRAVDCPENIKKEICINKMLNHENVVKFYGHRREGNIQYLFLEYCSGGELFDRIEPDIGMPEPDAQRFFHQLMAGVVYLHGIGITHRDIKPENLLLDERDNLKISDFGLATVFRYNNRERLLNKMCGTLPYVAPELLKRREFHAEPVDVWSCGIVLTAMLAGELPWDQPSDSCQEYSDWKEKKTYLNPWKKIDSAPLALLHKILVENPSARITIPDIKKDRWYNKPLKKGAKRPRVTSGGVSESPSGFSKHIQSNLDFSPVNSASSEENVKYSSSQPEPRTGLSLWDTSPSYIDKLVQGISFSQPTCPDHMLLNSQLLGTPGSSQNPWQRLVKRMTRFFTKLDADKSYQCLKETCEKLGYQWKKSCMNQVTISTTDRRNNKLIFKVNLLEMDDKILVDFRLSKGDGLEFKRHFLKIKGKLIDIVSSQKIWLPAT
Briefly: Chk1 FlashPlate kinase assay. As to conditions: 8.7 nM GST-Chk1, 1 uM ATP, 33P incorporation into peptide substrate. The format is biochemical. The protocol:
Recombinant human Chk1 was expressed as a fusion protein with glutathione S-transferase at the amino-terminus (GST-Chk1) using standard baculovirus vectors and (Bac-to-Bac®) insect cell expression system purchased from GIBCO™ Invitrogen. Recombinant protein expressed in insect cells was purified using glutathione sepharose (Amersham Biotech) using standard procedures described by the manufacturer.
Chk1 FlashPlate® Kinase Assay:
Assays (25 μL) contained 8.7 nM GST-Chk1, 10 mM MES, 0.1 mM ethylene glycol-bis(β-aminoethylether)-N,N,N′,N′-tetracetic acid (EGTA, pH 8.0), 2 mM DTT, 0.05% Tween 20, 3 uM peptide substrate (Biotin-ILSRRPSYRKILND-free acid) (SEQ ID NO: 1), 1 uM ATP, 0.4 uCi ^33P-γ-ATP (NEN), 4% DMSO. Reactions were incubated for 30 minutes at room temperature, terminated with 50 μL of 50 mM EDTA and 90 μL were transferred to streptavidin-coated FlashPlates® (NEN) and incubated for 1 hour at room temperature. Plates were washed with phosphate buffered salaine containing 0.01% Tween-20 and 10 mM sodium pyrophosphate. Plates were dried, sealed with Topseal™ (NEN) and amount of ^33P incorporated into the peptide substate measure using a Packard Topcount® NXT™ scintillation counter with standard settings.

Take `Cc1[nH]nc2c1c(=O)n(CCCNC(=O)C1CCCCC1)c1ccccc21` [Example 65, Cyclohexanecarboxylic acid [3-(3-methyl-4-oxo-2,4-dihydro-pyrazolo[4,3-c]quinolin-5-yl)-propyl]-amide]: the half-inhibitory concentration (IC50) is < 1000 nM.
The figure for `Cc1[nH]nc2c1c(=O)n(CCCN)c1ccc(Br)cc21` [Example 57, 5-(3-Amino-propyl)-8-bromo-3-methyl-1,5-dihydro-pyrazolo[4,3-c]quinolin-4-one] is < 1000 nM.
`Cc1[nH]nc2c1c(=O)n(CCNC(=O)CCc1ccccc1)c1ccccc21` [Example 92, N-[2-(3-Methyl-4-oxo-2,4-dihydro-pyrazolo[4,3-c]quinolin-5-yl)-ethyl]-3-phenyl-propionamide]: the IC50 was in the range of 1000 to 20000 nM.
The value for `Cc1n[nH]c2c1c(=O)n(CCCC(=O)N1CCN(C(=O)OC(C)(C)C)CC1)c1ccc(Br)cc21` [Example 21, 4-[4-(8-Bromo-3-methyl-4-oxo-1,4-dihydro-pyrazolo[4,3-c]quinolin-5-yl)-butyryl]-piperazine-1-carboxylic acid tert-butyl ester] was < 1000 nM; that for `Cc1[nH]nc2c1c(=O)n(CCCNC(=O)CCCNC(=O)OC(C)(C)C)c1ccccc21` [Example 100, {3-[3-(3-Methyl-4-oxo-2,4-dihydro-pyrazolo[4,3-c]quinolin-5-yl)-propylcarbamoyl]-propyl}-carbamic acid tert-butyl ester] was 1000 to 20000 nM; that for `Cc1n[nH]c2c1c(=O)n(CC1CCCN(C(=O)OC(C)(C)C)C1)c1ccc(Br)cc21` (centres unmarked) [Example 30, 3-(8-Bromo-3-methyl-4-oxo-1,4-dihydro-pyrazolo[4,3-c]quinolin-5-ylmethyl)-piperidine-1-carboxylic acid tert-butyl ester] was 1000 to 20000 nM.
The value for `Cc1n[nH]c2c1c(=O)n(CCNC(=O)OC(C)(C)C)c1ccc(Br)cc21` [Example 52, [2-(8-Bromo-3-methyl-4-oxo-1,4-dihydro-pyrazolo[4,3-c]quinolin-5-yl)-ethyl]-carbamic acid tert-butyl ester] was < 1000 nM; that for `CC(=O)NCCCn1c(=O)c2c(C)[nH]nc2c2ccccc21` [Example 86, N-[3-(3-Methyl-4-oxo-2,4-dihydro-pyrazolo[4,3-c]quinolin-5-yl)-propyl]-acetamide] was < 1000 nM.
The figure for `Cc1[nH]nc2c1c(=O)n(CCCNC(=O)c1ccc(C#N)cc1)c1ccccc21` [Example 68, 4-Cyano-N-[3-(3-methyl4-oxo-2,4-dihydro-pyrazolo[4,3-c]quinolin-5-yl)-propyl]-benzamide] is < 1000 nM.
`Cc1[nH]nc2c1c(=O)n(CCCNC(=O)C1CCC(=O)N1)c1ccccc21` (centres unmarked) [Example 103, 5-Oxo-pyrrolidine-2-carboxylic acid [3-(3-methyl-4-oxo-2,4-dihydro-pyrazolo[4,3-c]quinolin-5-yl)-propyl]-amide]: the IC50 is < 1000 nM.
Regarding `Cc1n[nH]c2c1c(=O)n(CCCCN)c1ccc(Br)cc21` [Example 34, 5-(4-Amino-butyl)-8-bromo-3-methyl-1,5-dihydro-pyrazolo[4,3-c]quinolin-4-one], the IC50 was < 1000 nM.
The compound `Cc1[nH]nc2c1c(=O)n(CCCNC(=O)CCNC(=O)OC(C)(C)C)c1ccccc21` [Example 101, {2-[3-(3-Methyl-4-oxo-2,4-dihydro-pyrazolo[4,3-c]quinolin-5-yl)-propylcarbamoyl]-ethyl}-carbamic acid tert-butyl ester] came in with an IC50 of 1000 to 20000 nM.
Take `Cc1[nH]nc2c1c(=O)n(CCCNC(=O)N1CCOCC1)c1ccccc21` [Example 74, Morpholine-4-carboxylic acid [3-(3-methyl-4-oxo-2,4-dihydro-pyrazolo[4,3-c]quinolin-5-yl)-propyl]-amide]: the half-maximal inhibitory concentration (IC50) was < 1000 nM.
The value for `Cc1n[nH]c2c1c(=O)n(CC(C)CNC(=O)OC(C)(C)C)c1ccc(Br)cc21` (centres unmarked) [Example 41, [3-(8-Bromo-3-methyl-4-oxo-1,4-dihydro-pyrazolo[4,3-c]quinolin-5-yl)-2-methyl-propyl]-carbamic acid tert-butyl ester] was < 1000 nM.
